From patent publication US20230167068A1, “BENZOPYRAZOLE COMPOUND” (MEDSHINE DISCOVERY INC., priority 2019, published 2023)

What was measured:
[1] = test system: hMMP-1 promoter reporter gene in Hela cells (GR transcription repression); experiment: hMMP1 transcription repression activity, luciferase reporter gene screening system (hMMP1 GR transcription repression test); type: cell-based; settings: Homo sapiens; for Emax: HeLa, maximum effect value, positive control 1000 nM dexamethasone, read-out: TR (hMMP1 transcription inhibition activity) Effect; for IC50: absolute IC50, HeLa hMMP-1/luciferase cells, 10 nM PMA, 18 h, max concentration 1000 nM, read-out: TR (hMMP1 transcription inhibition activity) IC50
Text: Human MMP-1 promoter region (containing two AP-1 binding sites and two PEA3 sites, a total of 249bp, GenBank catalog #AF023338) was cloned into the upstream of luciferase reporter gene. The hMMP-1 promoter reporter gene was constructed and transfected into Hela cells so that luciferase production could be easily detected. A stable recombinant hMMP-⅟luciferase cell line was used for the development and validation of this experiment.
• [0377] 1) All the culture media were carefully aspirated, and the cell layer was rinsed gently with an appropriate amount of DPBS, and then aspirated. • [0378] 2) An appropriate amount of 0.05% Typsine EDTA was added and incubated in a CO2 incubator for 3-5 minutes to digest the cells. • [0379] 3) The cells were resuspended with an appropriate amount of cell culture medium. • [0380] 4) The required amount of cells were calculated. The cell concentration was 5x10^3 cells/well. • [0381] 5) The cell suspension was diluted with appropriate cell culture medium. • [0382] 6) The cell suspension was dispensed into a disposable sterile loading slot. • [0383] 7) Inoculated 30µL per well into a 384-well plate. • [0384] 8) The cell plate was placed in a 37° C. 5% CO2 incubator for 18-24 hours.
The final DMSO concentration was 0.1%. PMA needs to be protected from light during use.
hMMP1 GR transcription repression activity test • [0395] 1) Inoculated cells: Fresh cells were inoculated into 384 white experimental plates at 5x10^3 cells/30µL/well, and incubated in a 5% CO2 incubator at 37° C. for 24 hours. • [0396] 2) Compound preparation: The compound plate was prepared before the experiment, and the reference compound (dexamethasone) and the tested compound of 10x concentration were prepared. Finally, the experimental plate of 10× concentration compound was obtained. • [0397] 3) Added compound: 3.3 µL of 10x compound was transferred with Bravo and added to cell plate. Incubated for 18 hours in a 5% CO2 incubator at 37° C. • [0398] 4) 30 µL of Bright-Glo fluorescent detection reagent was transferred to the cell plate. • [0399] 5) Centrifugal incubation for 2 minutes. • [0400] 6) The fluorescence value was measured with the Envision plate reader.
Positive Control: 10 nM PMA + 1000 nM dexamethasone (0.1% DMSO)
Negative control: 10 nM PMA (0.1% DMSO)
(§1) Test compound: Maximum concentration of 1000 nM, 4-fold dilution, 10 wells in total, repeated.
(§2) Dexamethasone: Maximum concentration of 1000 nM, 4-fold dilution, 10 wells in total, repeated.
The graphing software GraphPad Prism5 was used to create the concentration curves of the test compounds and calculate the IC50 values.

[2] = test system: MMTV promoter luciferase reporter in HeLa cell line (GR transcription activation); experiment: MMTV transcription activation activity, luciferase reporter gene screening system (MMTV_GR transcription activation experiment); type: cell-based; settings: Homo sapiens; for Emax: HeLa, maximum effect value, positive control 1000 nM dexamethasone, read-out: TA (MMTV transcription activation activity) Effect; for EC50: absolute EC50, HeLa MMTV-luciferase cells, 18 h, max concentration 1000 nM, read-out: TA (MMTV transcription activation activity) EC50
Text: The promoter of mouse mammary tumor virus (MMTV) contains specific binding sites for activating GRs (GREs). To determine the activity of the compounds, a reporter gene (luciferase) was inserted after the MMTV promoter, and this construct was expressed in a stable manner in the genome of the HeLa cell line. MMTV promoter was activated by the test compounds to induce the expression of luciferase, and its activity was detected by luminescence measurement.
• [0442] 1) All the culture media were carefully aspirated, the cell layer was rinsed gently with an appropriate amount of DPBS, and then aspirated. • [0443] 2) An appropriate amount of 0.05% Typsine EDTA was added and incubated in a CO2 incubator for 3-5 minutes to digest the cells. • [0444] 3) The cells were resuspended with an appropriate amount of cell culture medium. • [0445] 4) The amount of cells required was calculated, and the cell concentration was 4×10^3 cells/well. • [0446] 5) The cell suspension was diluted with appropriate cell culture medium. • [0447] 6) Cell suspension was dispensed into a disposable sterile loading slot. • [0448] 7) Inoculated 30 µL per well into a 384-well plate. • [0449] 8) The cell plate was placed in a 37° C. 5% CO2 incubator for 18-24 hours.
Compounds were diluted with DMSO to 1 mM, 0.25 mM, 0.0625 mM, 0.015625 mM, 0.0039 mM, 0.0009765 mM, 0.000244 mM, 0.000061 mM, 0.00001526 mM and 0.0000038125 mM, then diluted 25-fold with serum culture medium treated with activated carbon, and finally 4x concentration compound experimental plate was obtained, prepared before use.
The final DMSO experimental concentration was 0.1%.
MMTV_GR transcription activation activity experiment • [0458] 1) Inoculated cells: Fresh cells were inoculated into 384 white transparent bottom experimental plates at 4×10^3 cells/30 µL/well, and incubated at 37° C. 5% CO2 incubator for 24 hours. • [0459] 2) Compound preparation: The compound plate was prepared before the experiment, and the reference compound (dexamethasone) and the test compound of 4x concentration were prepared. Finally, the experimental plate of 4x concentration compound was obtained. • [0460] 3) Added compound: 10 µL of 4x compound was transferred with Bravo and added to cell plate. Incubated for 18 hours in a 37° C. 5% CO2 incubator. • [0461] 4) 30 µL of Bright-Glo fluorescent detection reagent was transferred to the cell plate. • [0462] 5) Centrifugal incubation for 2 minutes. • [0463] 6) The fluorescence value was measured with the Envision plate reader.
Positive control: 1000 nM dexamethasone (0.1% DMSO)
Negative control: 0.1% DMSO
as §1, §2
The graphing software GraphPad Prism5 was used to create the concentration curves of the tested compounds and calculate the IC50 values.

[3] = In vivo pharmacokinetic properties study in male SD rats; settings: rat, plasma, iv 2 mg/kg; for half-life: read-out: T½ (converted); for Vd: read-out: Vdss
Method: Experimental purpose: The purpose of this study was to determine the pharmacokinetic parameters of compounds in male SD rats.
Experimental methods: In this project, two male SD rats were intravenously administered with a dose of 2 mg/kg and a concentration of 0.4 mg/mL. Plasma samples were collected at 0 h (before administration) and 0.0833, 0.25, 0.5, 1, 2, 4, 6, 8, 24 h after administration. Then the collected samples were analyzed by LC-MS/MS and the data were collected. The collected analytical data were used to calculate the relevant pharmacokinetic parameters using Phoenix WinNonlin 6.3 software.

SMILES	Emax [1]	IC50 [1]	Emax [2]	EC50 [2]	clearance [3]	half-life [3]	Vd [3]
C[C@H](NC(=O)C(C)(F)F)[C@H](Oc1ccc2c(cnn2-c2ccc3c(c2)CCCO3)c1)c1cc(F)cc(F)c1 [WX002]	100%	0.318 nM	76%	2.07 nM	–	–	–
C[C@H](NC(=O)C(C)(F)F)[C@H](Oc1ccc2c(cnn2-c2ccc3nccn3c2)c1)c1cc(F)cc(F)c1 [WX003]	95.1%	0.08 nM	91.4%	0.229 nM	–	–	–
CC(C)[C@H](NC(=O)C(C)(F)F)[C@H](Oc1ccc2c(cnn2-c2ccc3nccn3c2)c1)c1ccccc1 [WX004]	78.8%	3.58 nM	63.7%	5.86 nM	–	–	–
CC(C)[C@H](NC(=O)C(C)(F)F)[C@H](Oc1ccc2c(cnn2-c2ccc3nncn3c2)c1)c1cc(F)cc(F)c1 [WX017]	86%	0.9 nM	81.3%	2.56 nM	–	–	–
CC(C)[C@H](NC(=O)C(C)(F)F)[C@H](Oc1ccc2c(cnn2-c2ccc3nncn3c2)c1)c1ccccc1 [WX018]	83.7%	6.1 nM	69.4%	12.3 nM	–	–	–
C[C@H](NC(=O)C(C)(F)F)[C@H](Oc1ccc2c(cnn2-c2ccc3nncn3c2)c1)c1cc(F)cc(F)c1 [WX019]	94.8%	0.171 nM	75.2%	0.94 nM	9.74 mL/min/kg	3 h	1.28 L/kg
C[C@H](NC(=O)C(C)(F)F)[C@H](Oc1ccc2c(cnn2-c2ccc3ncnn3c2)c1)c1cc(F)cc(F)c1 [WX034]	97.1%	3.22 nM	89.2%	3.2 nM	–	–	–
C[C@H](NC(=O)C(C)(F)F)[C@H](Oc1ccc2c(cnn2-c2ccc3nnnn3c2)c1)c1cc(F)cc(F)c1 [WX035]	94.6%	2.15 nM	82.5%	5.59 nM	–	–	–
C[C@H](NC(=O)C(C)(F)F)[C@H](Oc1ccc2c(cnn2-c2cnn(C)c2)c1)c1ccccc1 [WX043]	93.3%	1.21 nM	72.8%	5.03 nM	–	–	–
C[C@H](NC(=O)C(C)(F)F)[C@H](Oc1ccc2c(cnn2-c2cn(C)nn2)c1)c1cc(F)cc(F)c1 [WX051]	95.4%	3.45 nM	70.8%	4.93 nM	9.29 mL/min/kg	3.54 h	2.61 L/kg
